Data published in patent EP2253308A1, “Pharmaceutical composition comprising microbubbles for targeted tumor therapy” (Ludwig-Maximilians-Universität München, priority 2009, dated 2010).

Tested on: 293/KDR human kidney carcinoma tissue cultures
Assay: In vitro anti-proliferative efficacy, cell viability assay (formazan absorption) with or without ultrasound
Type: cell-based
Conditions: effect not affected by the application of ultrasound; 24 hours incubation; % of untreated cells
Experimental: The anti-proliferative efficacy of doxorubicin-loaded microbubbles according to Example 2 was determined in an in vitro experiment using 293/KDR human kidney carcinoma tissue cultures.
First, the cells were cultivated in 10% fetal calf serum activated Dulbecco's Modified Eagle Medium. Prior to the experiment, the cells were brought in suspension by trypsin/EDTA solution. A cell suspension of 200 µl containing about 6 x 10^4 cells was transferred into each well of a 96-well plate (Greiner Bio-One GmbH, Germany) and subsequently admixed with an aqueous solution of either doxorubicin, doxorubicin-loaded liposomes, or doxorubicin-loaded microbubbles (n = 10). The corresponding blank samples were prepared without doxorubicin (see Figure 3). Ultrasound with a frequency of 1 MHz, an intensity of 2 W/cm^2, and a duty cycle of 50% was applied directly onto each well using Sonitron 2000 (Rich-Mar Inc., USA). In order to avoid the presence of standing waves, the well plate was under laid with an absorbing gel pad.
After 24 hours of incubation the cell metabolic activity was measured using a cell viability assay. […] Purple formazan produced by viable cells could be measured by its UV/Vis absorption using FluostarOmega plate reader (BMG Labtech GmbH, Offenburg, Germany) at a wavelength of 590 nm (measurement) and a wavelength of 630 nm (reference). […]

With `COc1cccc2c1C(=O)c1c(O)c3c(c(O)c1C2=O)C[C@@](O)(C(=O)CO)C[C@@H]3O[C@H]1C[C@H](N)[C@H](O)[C@H](C)O1` [free doxorubicin] the cell viability was 62-64%.
